Test results reported in patent US20200215169A1, “ANTIBACTERIAL METHODS AND RELATED KITS” (THE HENRY M. JACKSON FOUNDATION FOR THE ADVANCEMENT OF …, priority 2017, published 2020).
Entries after “also recorded” stand apart in the source; their conditions may differ.

Tests used:
[1] = test system: E. faecalis OG1RF and Δeep biofilms; test: Biofilm biomass quantified by safranin staining, OD450 nm, 96-well polystyrene plates; format: cell-based, Enterococcus faecalis
Description: (§1) Biofilms of the two strains were grown overnight in tryptic soy broth without added glucose in the wells of 96-well polystyrene plates at 37° C. The liquid cultures were removed from the plate, and the material remaining in the wells (i.e., the biomass) was washed five times with sterile water.
Both OG1RF and Δeep were streaked on Brain Heart Infusion (BHI) agar plates and incubated at room temperature for two days. Three colonies from each strain were inoculated in BHI broth and incubated overnight at 37° C. 96-well microtiter plate biofilm assays were performed using the overnight cultures diluted in Tryptic Soy Broth (TSB). Biofilm plates were incubated overnight at 37° C. in a moist environment. The microtiter plate was washed with sterile water. […] After incubation, the microtiter plate was washed again with sterile water and left to dry until water was absent in the wells. The plate was stained with safranin, washed again with sterile water, and then read on a plate reader to determine the amount of biofilm in the wells.

[2] = test system: E. faecalis OG1RF and Δeep biofilms; test: Viable cells (CFU) recovered from biofilm biomass after treatment; conditions: for decrease in viable biofilm cells: three-hour exposure
Description: (§2) Cells were scraped up from the wells of the 96-well plate following the post-treatment washing step, as described above. The scraped up cells were serially diluted and plated to assess the number of colony forming units (CFU) recovered per ml (CFU/ml).
The bacteria were then diluted (10^0-10^−7), and plated on Brain Heart Infusion (BHI) plates. The plates were incubated overnight at 37° C.
These solutions were diluted by serial 10-fold dilutions, and then aliquots of each dilution were plated on BHI agar plates to enumerate the number of viable bacteria present in each solution. In addition, the biofilms in the plate were washed, and then two wells of OG1RF biofilms and two wells of Δeep biofilms were removed by scraping manually with a pipette tip and resuspended in potassium phosphate buffered saline. These dislodged biofilm cell solutions were also diluted by serial 10-fold dilutions, and then aliquots of each dilution were plated on BHI agar plates to enumerate the viable bacteria present in each sample. Finally, the remainder of the biofilm wells were allowed to dry for several hours, and then the biomass in each well was stained with safranin. Excess safranin was washed away, and the plates were dried again. Biofilm biomass was quantified by reading the optical density of safranin-stained wells at OD450 nm.

[3] = test system: E. faecalis strains DS16, FA2-2, JH2-2, VA1128, V583 and 39-5 biofilms; test: Biofilm biomass by safranin staining, laboratory strains and clinical isolates; format: cell-based, Enterococcus faecalis; conditions: strains DS16, VA1128 and V583, methods of Example 1
Description: as §1, with “water. […] Following incubation, the lysozyme or buffer solutions were removed, and the wells were washed again as above.” for “water.”
E. faecalis strains DS16, FA2-2, JH2-2, and 39-5 are strains that have been used for laboratory experiments for many years, and E. faecalis strain V583 is a vancomycin-resistant strain that has become the prototype lab strain for studies of vancomycin-resistant E. faecalis. E. faecalis strain VA1128 is a clinical isolate.

[4] = test system: E. faecalis OG1RF and Δeep biofilms; test: Viable cells in the treatment solution (supernatant) removed from biofilms, dispersal check; format: cell-based, Enterococcus faecalis; conditions: 5 mg/ml hen egg white lysozyme, 3 h, 37° C., either strain
Description: To conduct this experiment, the number of viable cells that were present in the buffer or lysozyme solution that was removed from the biofilms following exposure was measured. If viable cells were dispersed from the biofilm following treatment, then one should be able to enumerate viable cells in the lysozyme solution removed from the treated wells.
In this experiment, biofilms of E. faecalis OG1RF and Δeep were grown in 96-well microtiter plates overnight. The biofilms were washed to remove non-adherent cells.

[5] = test system: E. faecalis strains DS16, FA2-2, JH2-2, VA1128, V583 and 39-5 biofilms; test: Viable cells (CFU) recovered from biofilms, laboratory strains and clinical isolates; format: cell-based, Enterococcus faecalis; conditions: all tested strains, methods of Example 1
From the text: as §2

[6] = test system: planktonic E. faecalis OG1RF and Δeep cells; test: Viability of planktonic logarithmic and stationary phase cells exposed to lysozyme; format: cell-based, Enterococcus faecalis; conditions: 2.5 mg/ml lysozyme, 6 hours
Description: Early logarithmic cultures were prepared by diluting overnight cultures 1:100 in BHI broth. To obtain stationary phase cells, BHI broth was inoculated with 3 individual colonies and cultivated for about 18 hours. […] Cultures to which sterile water was added served as controls. Cultures were incubated at 37° C. for 6 hours.

[7] = test system: E. faecalis OG1RF biofilms; conditions: cited from earlier work
E. faecalis OG1RF = conditions: cited from earlier work
[8] = 128 μg/ml ampicillin in water, 3 h, OG1RF and Δeep

Human lysozyme: purified, recombinant human lysozyme available for purchase
increase in stained biomass ([1]; recombinant human lysozyme versus buffer): approximately 3.5 fold | decrease in viable cells ([2]; OG1RF and Δeep, recombinant human lysozyme): > 99.9% | reduction of viable cells recovered from biofilms ([2]; OG1RF, recombinant human lysozyme): 3.2 log 10 CFU/ml | reduction of viable cells recovered from biofilms ([2]; Δeep, recombinant human lysozyme): 4.0 log 10 CFU/ml

lysozyme: hen egg white lysozyme (EC 3.2.1.17), enzyme that hydrolyzes beta-1,4-linkages of bacterial cell wall peptidoglycan
increase in stained biomass among 0.156, 1.25 and 5 mg/ml ([1]; 1.25 mg/ml lysozyme): largest increase | biofilm biomass (safranin staining) versus buffer ([1]; 5 mg/ml hen egg white lysozyme, 3 h, 37° C., OG1RF and Δeep): increased biofilm biomass of equal magnitude for both strains; also recorded: increased equally for both strains; also recorded: greater than the staining in untreated wells | stained biomass at 6 hours compared to 3 hours ([1]; 5 mg/ml lysozyme, 37° C.): increased slightly | biofilm biomass after treatment [3]: increased, to some extent | viable cells in lysozyme supernatant [4]: no viable cells above the limit of detection | viable cells recovered from biofilms [5]: reduced the number of viable cells | decrease in viable cells ([6]; OG1RF and Δeep, stationary phase): about 1.5 log 10 CFU/ml | decrease in viable cells ([6]; OG1RF, logarithmic growth): no decrease | viable cells recovered from biofilm at 6 and 24 hours compared to 3 hours ([2]; 5 mg/ml lysozyme, 37° C.): dropped slightly | drop in viable cells recovered from biofilm ([2]; OG1RF, 5 mg/ml lysozyme, 3 h, difference in means of 3 biological replicates): 2.8 log 10 CFU/ml | decrease in viable biofilm cells ([2]; OG1RF, 5 mg/ml lysozyme): 99.8% | viability of biofilm cells versus untreated or buffer (in words) ([2]; lysozyme-treated OG1RF and Δeep biofilms): fewer living cells than the untreated strains; also recorded: displayed killing; also recorded: decreased the number of viable biofilm cells | decrease in viable biofilm cells ([2]; Δeep, 5 mg/ml lysozyme): 99.9%

CC1(C)S[C@@H]2[C@H](NC(=O)[C@H](N)c3ccccc3)C(=O)N2[C@H]1C(=O)O [ampicillin, reference compound]
ampicillin concentration to which biofilms are resistant [7]: > 128 µg/mL | change in biofilm biomass [1, 8]: no changes; also recorded: resistant to any effect | susceptibility in planktonic conditions (E. faecalis OG1RF): susceptible | change in biofilm cell viability [2, 8]: no changes; also recorded: resistant to any effect
